Results as given in patent US10770169B2, “Method of providing a treatment to a subject based on a dynamic pathway map” (THE REGENTS OF THE UNIVERSITY OF CALIFORNIA, priority 2010, dated 2020).
Like-named read-outs stand apart in the source and are kept apart here.

Tests used:
Assay type in all cases: cell-based, human
[1] = system: panel of 55 breast cancer cell lines; experiment: Cell growth inhibition assay (Cell Titer Glo, 72 h, 9 doses; GI50, TGI, LC50); conditions: Homo sapiens, read-out: GI50 (converted)
[2] = system: luminal, basal, claudin-low and ERBB2AMP breast cancer cell lines; experiment: Associations of clinically relevant subtypes and response (non-parametric ANOVA or t-test on GI50 ranks)
Outline: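 GI50 values were compared between cell-line subtype groups by non-parametric ANOVA or t-test on ranks. P-values from three test sets were combined and FDR-corrected. Significant three-group effects were followed by post-hoc comparison of each group against all others, and FDR p<0.20 counted as significant.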

[3] = system: breast cancer cell lines with aberrant vs normal copy number; experiment: Association of recurrent copy number changes and response (t-test on GI50); conditions: FDR p<0.2
Text: We used a t-test to assess the association between recurrent copy number changes (at 8q24 (MYC), 11q13 (CCND1), 20q13 (STK15/AURKA)) and drug sensitivity. We combined into a single group cell lines with low or no amplification and compared them to cell lines with high amplification. […] Cell lines for which the GI50 was equal to the maximum concentration tested were omitted from analysis. We omitted compounds where any group had fewer than five samples.

C/C(=C\c1csc(C)n1)[C@@H]1C[C@@H]2O[C@]2(C)CCC[C@H](C)[C@H](O)[C@@H](C)C(=O)C(C)(C)[C@@H](O)CC(=O)N1 [Ixabepilone]
GI50 ([1]; 600MPE cell line, censored GI50 values): 5250 nM
GI50 ([1]; AU565, AU565 cell line, censored GI50 values): 4.27 nM
GI50 ([1]; AU565, cell line AU565): 4.27 nM
GI50 ([1]; BT-20, BT20 cell line, censored GI50 values): 8.13 nM
GI50 ([1]; BT-20, cell line BT20): 8.13 nM
GI50 ([1]; BT-474, BT474 cell line, censored GI50 values): 8.32 nM
GI50 ([1]; BT-474, cell line BT474): 8.32 nM
GI50 ([1]; BT-483, BT483 cell line, censored GI50 values): 5370 nM
GI50 ([1]; BT-483, cell line BT483): 5370 nM
GI50 ([1]; BT-549, BT549 cell line, censored GI50 values): 6.03 nM
GI50 ([1]; BT-549, cell line BT549): 6.03 nM
GI50 ([1]; CAMA-1, CAMA1 cell line, censored GI50 values): 1 nM
GI50 ([1]; CAMA-1, cell line CAMA1): 1 nM
GI50 ([1]; HCC38, HCC38 cell line, censored GI50 values): 2.82 nM
GI50 ([1]; HCC38, cell line HCC38): 2.82 nM
GI50 ([1]; HCC70, HCC70 cell line, censored GI50 values): 1.41 nM
GI50 ([1]; HCC70, cell line HCC70): 1.41 nM
GI50 ([1]; HCC202, HCC202 cell line, censored GI50 values): 20000 nM
GI50 ([1]; HCC202, cell line HCC202): 20000 nM
GI50 ([1]; HCC1143, HCC1143 cell line, censored GI50 values): 9.77 nM
GI50 ([1]; HCC1143, cell line HCC1143): 9.77 nM
GI50 ([1]; HCC1187, HCC1187 cell line, censored GI50 values): 2.19 nM
GI50 ([1]; HCC1187, cell line HCC1187): 2.19 nM
GI50 ([1]; HCC1395, HCC1395 cell line, censored GI50 values): 12 nM
GI50 ([1]; HCC1395, cell line HCC1395): 12 nM
GI50 ([1]; HCC1419, HCC1419 cell line, censored GI50 values): 11000 nM
GI50 ([1]; HCC1419, cell line HCC1419): 11000 nM
GI50 ([1]; HCC1428, HCC1428 cell line, censored GI50 values): 58.9 nM
GI50 ([1]; HCC1428, cell line HCC1428): 58.9 nM
GI50 ([1]; HCC1500, HCC1500 cell line, censored GI50 values): 3.24 nM
GI50 ([1]; HCC1500, cell line HCC1500): 3.24 nM
GI50 ([1]; HCC1806, HCC1806 cell line, censored GI50 values): 4.9 nM
GI50 ([1]; HCC1806, cell line HCC1806): 4.9 nM
GI50 ([1]; HCC1937, HCC1937 cell line, censored GI50 values): 309 nM
GI50 ([1]; HCC1937, cell line HCC1937): 309 nM
GI50 ([1]; HCC1954, HCC1954 cell line, censored GI50 values): 1.95 nM
GI50 ([1]; HCC1954, cell line HCC1954): 1.95 nM
GI50 ([1]; HCC2185 cell line, censored GI50 values): 9120 nM
GI50 ([1]; HCC3153 cell line, censored GI50 values): 6.17 nM
GI50 ([1]; LY2 cell line, censored GI50 values): 6.03 nM
GI50 ([1]; MCF7, MCF7 cell line, censored GI50 values): 0.363 nM
GI50 ([1]; MCF7, cell line MCF7): 0.363 nM
GI50 ([1]; MDA-MB-134-VI, MDAMB134VI cell line, censored GI50 values): 1.62 nM
GI50 ([1]; MDA-MB-157, MDAMB157 cell line, censored GI50 values): 4.9 nM
GI50 ([1]; MDA-MB-157, cell line MDAMB157): 4.9 nM
GI50 ([1]; MDA-MB-231, MDAMB231 cell line, censored GI50 values): 0.457 nM
GI50 ([1]; MDA-MB-231, cell line MDAMB231): 0.457 nM
GI50 ([1]; MDA-MB-361, MDAMB361 cell line, censored GI50 values): 2.29 nM
GI50 ([1]; MDA-MB-361, cell line MDAMB361): 2.29 nM
GI50 ([1]; MDA-MB-415, MDAMB415 cell line, censored GI50 values): 8.13 nM
GI50 ([1]; MDA-MB-415, cell line MDAMB415): 8.13 nM
GI50 ([1]; MDA-MB-436, MDAMB436 cell line, censored GI50 values): 5.75 nM
GI50 ([1]; MDA-MB-436, cell line MDAMB436): 5.75 nM
GI50 ([1]; MDA-MB-453, MDAMB453 cell line, censored GI50 values): 7.76 nM
GI50 ([1]; MDA-MB-453, cell line MDAMB453): 7.76 nM
GI50 ([1]; MDA-MB-468, MDAMB468 cell line, censored GI50 values): 1.32 nM
GI50 ([1]; MDA-MB-468, cell line MDAMB468): 1.32 nM
GI50 ([1]; SK-BR-3, SKBR3 cell line, censored GI50 values): 10.5 nM
GI50 ([1]; SK-BR-3, cell line SKBR3): 10.5 nM
GI50 ([1]; SUM52PE, SUM52PE cell line, censored GI50 values): 2.95 nM
GI50 ([1]; SUM52PE, cell line SUM52PE): 2.95 nM
GI50 ([1]; SUM149PT, SUM149PT cell line, censored GI50 values): 5.5 nM
GI50 ([1]; SUM149PT, cell line SUM149PT): 5.5 nM
GI50 ([1]; SUM185PE, SUM185PE cell line, censored GI50 values): 8.51 nM
GI50 ([1]; SUM185PE, cell line SUM185PE): 8.51 nM
GI50 ([1]; SUM225CWN, SUM225CWN cell line, censored GI50 values): 20000 nM
GI50 ([1]; SUM225CWN, cell line SUM225CWN): 20000 nM
GI50 ([1]; SUM1315MO2, SUM1315MO2 cell line, censored GI50 values): 6.03 nM
GI50 ([1]; SUM-159-PT, SUM159PT cell line, censored GI50 values): 6.92 nM
GI50 ([1]; SUM-159-PT, cell line SUM159PT): 6.92 nM
GI50 ([1]; T47D, T47D cell line, censored GI50 values): 7.94 nM
GI50 ([1]; T47D, cell line T47D): 7.94 nM
GI50 ([1]; UACC-812, UACC812 cell line, censored GI50 values): 5890 nM
GI50 ([1]; UACC-812, cell line UACC812): 5890 nM
GI50 ([1]; UACC-893, UACC893 cell line, censored GI50 values): 6.31 nM
GI50 ([1]; UACC-893, cell line UACC893): 6.31 nM
GI50 ([1]; ZR-75-1, ZR751 cell line, censored GI50 values): 295 nM
GI50 ([1]; ZR-75-1, cell line ZR751): 295 nM
GI50 ([1]; cell line 600MPE): 5250 nM
GI50 ([1]; cell line HCC2185): 9120 nM
GI50 ([1]; cell line HCC3153): 6.17 nM
GI50 ([1]; cell line LY2): 6.03 nM
GI50 ([1]; cell line MDAMB134V): 1.62 nM
GI50 ([1]; cell line SUM1315MO): 6.03 nM
subtype-specific response (sensitivity by transcriptional subtype) ([2]; GI50 across subtypes): more active against basal and claudin-low cell lines
Subtype specificity ([2]; Table 6, most sensitive subtype, FDR p<0.20): Basal + Claudin-low
association of response with homozygous deletion at 9p21 (CDKN2A) [3]: associated with response
